What was measured:
[1] = test system: colon adenocarcinoma (LoVo) cells; assay: MTT proliferation assay, colon; type: cell-based, Human; details: Homo sapiens, Tumor Cell Colon (LoVo), 120 hours, read-out: Anti-proliferative IC-50
Description: (§1) Cells were maintained in various media as follows: A549, LoVo and PC-3 (Ham's F12K medium with 2 mM L-glutamine and 1.5 g/L sodium bicarbonate), MIA PaCa-2 (Dulbecco's modified Eagle's medium with 4 mM L-glutamine and 4.5 g/L glucose), U87-MG (MEM+Earle's BSS). Medium for each cell line was supplemented with 10% FBS and […] Penecillin/Streptomycin. All cells were grown in incubators set at 37° C., 5% CO2. Thiazolyl Blue Tetrazolium Bromide (MTT) based proliferation assays were performed to assess the anti-proliferative activities of the compounds on these cells. Cells were seeded in 96 well plates at a density of 750 cells/well 24 hours prior to compound treatment. The cells were incubated with varying concentrations of compounds for 120 hours. […] Drug treatment was performed in 5 replicate wells. Background absorbance was established by wells containing medium but no cells. Vehicle (DMSO) only was used as control. MTT (Sigma-Aldrich, St. Louis, Mo.) was added to each well at a final concentration of 0.5 mg/ml. Following a 2 hour incubation at 37° C., medium in the wells was replaced with 0.15 ml DMSO. The plates were agitated for 15 min using a microtiter plate shaker.

[2] = test system: glioblastoma (U-87 MG) cells; assay: MTT proliferation assay, glioblastoma; type: cell-based; details: Homo sapiens, Tumor Cell Glioblastoma (U-87 MG), 120 hours, read-out: Anti-proliferative IC-50
Description: as §1

IC50 [1]: 450 nM | IC50 [2]: 810 nM
SMILES: O=C(Nc1ccc([N+](=O)[O-])cc1Cl)c1cc(Cl)ccc1O [Niclosamide]
